Laboratory results published in the NIST ThermoML archive (doi:10.1021/je101316g).
Numbers after ± are expanded uncertainties.

test: not given; settings: 353.15 K; 101.33 kPa; Liquid; Vibrating tube method

mass density | SMILES
1187.8 ± 2.4 kg/m3 | CCCCCCn1cc[n+](CCC#N)c1.O=S(=O)([O-])c1ccccc1 [3-(2-cyanoethyl)-1-hexyl-1H-imidazolium benzenesulfonate]
1208.9 ± 3.4 kg/m3 | CCCCCCn1cc[n+](CCC#N)c1.O=C([O-])c1cccc(S(=O)(=O)O)c1 [3-(2-cyanoethyl)-1-hexyl-1H-imidazolium 3-sulfobenzoate]

test: refractive index (Na D-line) (dimensionless); settings: 298.15 K; 101.33 kPa; Liquid; Standard Abbe refractometry

refractive index | SMILES
1.52975 ± 0.0008 | CCCCCCn1cc[n+](CCC#N)c1.O=S(=O)([O-])C(F)(F)F
1.48409 ± 0.00073 | CCCCCCCCCCCCOS(=O)(=O)[O-].CCCCCCn1cc[n+](CCC#N)c1 [3-(2-cyanoethyl)-1-hexyl-1H-imidazolium dodecyl sulfate]
1.4797 ± 0.00076 | CCCCC(CC)COC(=O)CC(C(=O)OCC(CC)CCCC)S(=O)(=O)[O-].CCCCCC[n+]1ccn(CCC#N)c1 (configuration not stated)
1.527 ± 0.00066 | CCCCCCn1cc[n+](CCC#N)c1.O=S(=O)([O-])c1ccccc1 [3-(2-cyanoethyl)-1-hexyl-1H-imidazolium benzenesulfonate]
1.52295 ± 0.00074 | CCCCCCn1cc[n+](CCC#N)c1.O=C([O-])c1cccc(S(=O)(=O)O)c1 [3-(2-cyanoethyl)-1-hexyl-1H-imidazolium 3-sulfobenzoate]

same assay, conditions: 303.15 K; 101.33 kPa; Liquid; Standard Abbe refractometry

refractive index | SMILES
1.52891 ± 0.00081 | CCCCCCn1cc[n+](CCC#N)c1.O=S(=O)([O-])C(F)(F)F
1.48269 ± 0.00073 | CCCCCCCCCCCCOS(=O)(=O)[O-].CCCCCCn1cc[n+](CCC#N)c1 [3-(2-cyanoethyl)-1-hexyl-1H-imidazolium dodecyl sulfate]
1.47841 ± 0.00076 | CCCCC(CC)COC(=O)CC(C(=O)OCC(CC)CCCC)S(=O)(=O)[O-].CCCCCC[n+]1ccn(CCC#N)c1 (configuration not stated)
1.5261 ± 0.00067 | CCCCCCn1cc[n+](CCC#N)c1.O=S(=O)([O-])c1ccccc1 [3-(2-cyanoethyl)-1-hexyl-1H-imidazolium benzenesulfonate]
1.52221 ± 0.00074 | CCCCCCn1cc[n+](CCC#N)c1.O=C([O-])c1cccc(S(=O)(=O)O)c1 [3-(2-cyanoethyl)-1-hexyl-1H-imidazolium 3-sulfobenzoate]

same assay, conditions: 308.15 K; 101.33 kPa; Liquid; Standard Abbe refractometry

refractive index | SMILES
1.52774 ± 0.00081 | CCCCCCn1cc[n+](CCC#N)c1.O=S(=O)([O-])C(F)(F)F
1.48125 ± 0.00073 | CCCCCCCCCCCCOS(=O)(=O)[O-].CCCCCCn1cc[n+](CCC#N)c1 [3-(2-cyanoethyl)-1-hexyl-1H-imidazolium dodecyl sulfate]
1.47709 ± 0.00076 | CCCCC(CC)COC(=O)CC(C(=O)OCC(CC)CCCC)S(=O)(=O)[O-].CCCCCC[n+]1ccn(CCC#N)c1 (configuration not stated)
1.52499 ± 0.00068 | CCCCCCn1cc[n+](CCC#N)c1.O=S(=O)([O-])c1ccccc1 [3-(2-cyanoethyl)-1-hexyl-1H-imidazolium benzenesulfonate]
1.52146 ± 0.00075 | CCCCCCn1cc[n+](CCC#N)c1.O=C([O-])c1cccc(S(=O)(=O)O)c1 [3-(2-cyanoethyl)-1-hexyl-1H-imidazolium 3-sulfobenzoate]

same assay, conditions: 313.15 K; 101.33 kPa; Liquid; Standard Abbe refractometry

refractive index | SMILES
1.52683 ± 0.00081 | CCCCCCn1cc[n+](CCC#N)c1.O=S(=O)([O-])C(F)(F)F
1.47991 ± 0.00072 | CCCCCCCCCCCCOS(=O)(=O)[O-].CCCCCCn1cc[n+](CCC#N)c1 [3-(2-cyanoethyl)-1-hexyl-1H-imidazolium dodecyl sulfate]
1.4758 ± 0.00076 | CCCCC(CC)COC(=O)CC(C(=O)OCC(CC)CCCC)S(=O)(=O)[O-].CCCCCC[n+]1ccn(CCC#N)c1 (configuration not stated)
1.52382 ± 0.00068 | CCCCCCn1cc[n+](CCC#N)c1.O=S(=O)([O-])c1ccccc1 [3-(2-cyanoethyl)-1-hexyl-1H-imidazolium benzenesulfonate]
1.52029 ± 0.00076 | CCCCCCn1cc[n+](CCC#N)c1.O=C([O-])c1cccc(S(=O)(=O)O)c1 [3-(2-cyanoethyl)-1-hexyl-1H-imidazolium 3-sulfobenzoate]

same assay, conditions: 318.15 K; 101.33 kPa; Liquid; Standard Abbe refractometry

refractive index | SMILES
1.5259 ± 0.00081 | CCCCCCn1cc[n+](CCC#N)c1.O=S(=O)([O-])C(F)(F)F
1.47863 ± 0.00073 | CCCCCCCCCCCCOS(=O)(=O)[O-].CCCCCCn1cc[n+](CCC#N)c1 [3-(2-cyanoethyl)-1-hexyl-1H-imidazolium dodecyl sulfate]
1.47447 ± 0.00076 | CCCCC(CC)COC(=O)CC(C(=O)OCC(CC)CCCC)S(=O)(=O)[O-].CCCCCC[n+]1ccn(CCC#N)c1 (configuration not stated)
1.52266 ± 0.00068 | CCCCCCn1cc[n+](CCC#N)c1.O=S(=O)([O-])c1ccccc1 [3-(2-cyanoethyl)-1-hexyl-1H-imidazolium benzenesulfonate]
1.51936 ± 0.00076 | CCCCCCn1cc[n+](CCC#N)c1.O=C([O-])c1cccc(S(=O)(=O)O)c1 [3-(2-cyanoethyl)-1-hexyl-1H-imidazolium 3-sulfobenzoate]

same assay, conditions: 323.15 K; 101.33 kPa; Liquid; Standard Abbe refractometry

refractive index | SMILES
1.52464 ± 0.00082 | CCCCCCn1cc[n+](CCC#N)c1.O=S(=O)([O-])C(F)(F)F
1.47702 ± 0.00074 | CCCCCCCCCCCCOS(=O)(=O)[O-].CCCCCCn1cc[n+](CCC#N)c1 [3-(2-cyanoethyl)-1-hexyl-1H-imidazolium dodecyl sulfate]
1.47305 ± 0.00076 | CCCCC(CC)COC(=O)CC(C(=O)OCC(CC)CCCC)S(=O)(=O)[O-].CCCCCC[n+]1ccn(CCC#N)c1 (configuration not stated)
1.52145 ± 0.00068 | CCCCCCn1cc[n+](CCC#N)c1.O=S(=O)([O-])c1ccccc1 [3-(2-cyanoethyl)-1-hexyl-1H-imidazolium benzenesulfonate]
1.518 ± 0.00078 | CCCCCCn1cc[n+](CCC#N)c1.O=C([O-])c1cccc(S(=O)(=O)O)c1 [3-(2-cyanoethyl)-1-hexyl-1H-imidazolium 3-sulfobenzoate]

same assay, conditions: 328.15 K; 101.33 kPa; Liquid; Standard Abbe refractometry

refractive index | SMILES
1.52334 ± 0.00082 | CCCCCCn1cc[n+](CCC#N)c1.O=S(=O)([O-])C(F)(F)F
1.47566 ± 0.00073 | CCCCCCCCCCCCOS(=O)(=O)[O-].CCCCCCn1cc[n+](CCC#N)c1 [3-(2-cyanoethyl)-1-hexyl-1H-imidazolium dodecyl sulfate]
1.47171 ± 0.00076 | CCCCC(CC)COC(=O)CC(C(=O)OCC(CC)CCCC)S(=O)(=O)[O-].CCCCCC[n+]1ccn(CCC#N)c1 (configuration not stated)
1.52025 ± 0.00069 | CCCCCCn1cc[n+](CCC#N)c1.O=S(=O)([O-])c1ccccc1 [3-(2-cyanoethyl)-1-hexyl-1H-imidazolium benzenesulfonate]
1.51666 ± 0.00079 | CCCCCCn1cc[n+](CCC#N)c1.O=C([O-])c1cccc(S(=O)(=O)O)c1 [3-(2-cyanoethyl)-1-hexyl-1H-imidazolium 3-sulfobenzoate]

same assay, conditions: 333.15 K; 101.33 kPa; Liquid; Standard Abbe refractometry

refractive index | SMILES
1.52226 ± 0.00081 | CCCCCCn1cc[n+](CCC#N)c1.O=S(=O)([O-])C(F)(F)F
1.47422 ± 0.00073 | CCCCCCCCCCCCOS(=O)(=O)[O-].CCCCCCn1cc[n+](CCC#N)c1 [3-(2-cyanoethyl)-1-hexyl-1H-imidazolium dodecyl sulfate]
1.47029 ± 0.00077 | CCCCC(CC)COC(=O)CC(C(=O)OCC(CC)CCCC)S(=O)(=O)[O-].CCCCCC[n+]1ccn(CCC#N)c1 (configuration not stated)
1.51899 ± 0.00069 | CCCCCCn1cc[n+](CCC#N)c1.O=S(=O)([O-])c1ccccc1 [3-(2-cyanoethyl)-1-hexyl-1H-imidazolium benzenesulfonate]
1.51502 ± 0.0008 | CCCCCCn1cc[n+](CCC#N)c1.O=C([O-])c1cccc(S(=O)(=O)O)c1 [3-(2-cyanoethyl)-1-hexyl-1H-imidazolium 3-sulfobenzoate]
